From patent publication US20250195521A1 (Revolution Medicines, Inc., priority 2020, published 2025)

Key:
[1] = tested on: K-Ras G12C (NCI-H358 cells); assay: Potency assay: pERK in NCI-H358 cells; format: cell-based, human; conditions: Homo sapiens; NCI-H358 cells, 4 hours; read-out: pERK EC50 (H358 KRAS G12C)
Summary of the method: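 Cells plated the day before were exposed for 4 h at 37° C, 5% CO2 to a 10-point, 3-fold DMSO dilution series (10 mM top stock), in duplicate. Phospho-ERK was read by AlphaLISA SureFire Ultra or by In-Cell Western with DRAQ5 DNA stain, and IC50 came from a 4-parameter sigmoidal fit.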

NCI-H358 (K-Ras G12C) = assay: CellTiter-Glo cell viability assay, NCI-H358; format: cell-based, human; conditions: Homo sapiens, NCI-H358, 120 h, 5-day treatment; read-out: H358 Cell Viability assay data (K-Ras G12C, IC50)
Summary of the method: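 Cells seeded, compound added directly to plates; day 5: plates to RT ~30 min, CellTiter-Glo luminescence; (sample/avg DMSO)*100; 4-parameter fit.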

[2] = target: K-Ras G12C(GMP-PNP) binding to BRAF RBD (Homo sapiens (Human), UniProt P01116+P62937, G12C); assay: Disruption of BRAF RBD interaction with K-Ras (FRET / MOA assay), K-Ras G12C; format: biochemical; conditions: read-out: KRAS G12C FRET IC50
Summary of the method: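 First, test compounds in a 10-point 3-fold series (30 μM final top) were incubated for 3 hours at 25° C with nucleotide-loaded Ras, cyclophilin A and a BRAF RBD construct. Next, Eu anti-His and allophycocyanin anti-GST detection reagents were added for 1.5 hours. Finally, IC50s were derived from loss of TR-FRET signal against DMSO.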

[3] = target: KRAS G13D binding to BRAF RBD (Homo sapiens (Human), UniProt P01116+P62937, G13D); assay: Ras-Raf disruption/FRET/MOA assay, KRAS G13D; format: biochemical
Excerpt: (§1) Note—The following protocol describes a procedure for monitoring disruption of K-Ras G12C(GMP-PNP) binding to BRAF^RBD by a compound of the invention. This protocol may also be executed substituting other Ras proteins or nucleotides.
(§2) The purpose of this biochemical assay was to measure the ability of test compounds to facilitate ternary complex formation between a nucleotide-loaded K-Ras isoform and Cyclophilin A; the resulting ternary complex disrupts binding to a BRAF^RBD construct, inhibiting K-Ras signaling through a RAF effector. Data is reported as IC50 values.
(§3) Compound was present in plate wells as a 10-point 3-fold dilution series starting at a final concentration of 30 μM. After incubation at 25° C. for 3 hours, a mixture of Anti-His Eu—W1024 and anti-GST allophycocyanin was then added to assay sample wells at final concentrations of 10 nM and 50 nM, respectively, and the reaction incubated for an additional 1.5 hours. […] Compounds that facilitate disruption of a K-Ras: RAF complex were identified as those eliciting a decrease in the TR-FRET ratio relative to DMSO control wells.

[4] = target: KRAS Q61H binding to BRAF RBD (Homo sapiens (Human), UniProt P01116+P62937, Q61H); assay: Ras-Raf disruption/FRET/MOA assay, KRAS Q61H; format: biochemical
Excerpt: (§4) Disruption of B-Raf Ras-binding Domain (BRAF^RBD) Interaction with K-Ras by Compounds of the Invention (also called a FRET assay or an MOA assay)
as §1, §2
as §3, with “In assay buffer containing 25 mM HEPES pH 7.3, 0.002% Tween20, 0.1% BSA, 100 mM NaCl and 5 mM MgCl2, tagless Cyclophilin A, His6-K-Ras-GMPPNP, and GST-BRAF^RBD were combined in a 384-well assay plate at final concentrations of 25 μM, 12.5 nM and 50 nM, respectively. Compound was” for “Compound was”

[5] = target: NRAS G12C binding to BRAF RBD (Homo sapiens (Human), UniProt P01111+P62937, G12C); assay: Ras-Raf disruption/FRET/MOA assay, NRAS G12C; format: biochemical
Excerpt: as §1, §2, §3

[6] = target: NRAS Q61R binding to BRAF RBD (Homo sapiens (Human), UniProt P01111+P62937, Q61R); assay: Ras-Raf disruption/FRET/MOA assay, NRAS Q61R; format: biochemical
Excerpt: as §4, §1, §2
as §3, with “In assay buffer containing 25 mM HEPES pH 7.3, 0.002% Tween20, 0.1% BSA, 100 mM NaCl and 5 mM MgCl2, tagless Cyclophilin A, His6-K-Ras-GMPPNP, and GST-BRAF^RBD were combined in a 384-well assay plate at final concentrations of 25 μM, 12.5 nM and 50 nM, respectively. Compound was” for “Compound was”

[7] = target: NRAS Q61K binding to BRAF RBD (Homo sapiens (Human), UniProt P01111+P62937, Q61K); assay: Ras-Raf disruption/FRET/MOA assay, NRAS Q61K; format: biochemical
Excerpt: as §4, §1, §2
as §3, with “In assay buffer containing 25 mM HEPES pH 7.3, 0.002% Tween20, 0.1% BSA, 100 mM NaCl and 5 mM MgCl2, tagless Cyclophilin A, His6-K-Ras-GMPPNP, and GST-BRAF^RBD were combined in a 384-well assay plate at final concentrations of 25 μM, 12.5 nM and 50 nM, respectively. Compound was” for “Compound was”

[8] = target: NRAS WT binding to BRAF RBD (Homo sapiens (Human), UniProt P01111+P62937); assay: Ras-Raf disruption/FRET/MOA assay, NRAS WT; format: biochemical
Excerpt: as §4, §1, §2
as §3, with “In assay buffer containing 25 mM HEPES pH 7.3, 0.002% Tween20, 0.1% BSA, 100 mM NaCl and 5 mM MgCl2, tagless Cyclophilin A, His6-K-Ras-GMPPNP, and GST-BRAF^RBD were combined in a 384-well assay plate at final concentrations of 25 μM, 12.5 nM and 50 nM, respectively. Compound was” for “Compound was”

Chain of NRAS Q61R binding to BRAF RBD (P01111 whole entry Q61R): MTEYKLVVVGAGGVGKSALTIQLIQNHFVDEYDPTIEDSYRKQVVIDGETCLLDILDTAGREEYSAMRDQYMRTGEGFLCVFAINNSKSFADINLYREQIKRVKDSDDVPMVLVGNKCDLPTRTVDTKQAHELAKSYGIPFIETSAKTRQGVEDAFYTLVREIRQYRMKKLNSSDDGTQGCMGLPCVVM
Chain of NRAS Q61R binding to BRAF RBD (P62937 whole entry): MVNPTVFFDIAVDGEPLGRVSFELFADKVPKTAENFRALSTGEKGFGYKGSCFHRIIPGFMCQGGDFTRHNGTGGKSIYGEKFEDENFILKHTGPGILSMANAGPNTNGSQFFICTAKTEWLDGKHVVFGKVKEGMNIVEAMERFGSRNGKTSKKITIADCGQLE
Chain of KRAS Q61H binding to BRAF RBD (P01116 other isoform, or with tags, fused parts or gaps Q61H): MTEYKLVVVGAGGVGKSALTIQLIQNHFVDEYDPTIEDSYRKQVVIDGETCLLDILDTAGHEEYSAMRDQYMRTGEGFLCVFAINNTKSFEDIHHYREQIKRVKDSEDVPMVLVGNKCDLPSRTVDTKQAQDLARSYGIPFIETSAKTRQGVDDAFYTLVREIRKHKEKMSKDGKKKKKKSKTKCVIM
Chain of KRAS Q61H binding to BRAF RBD (P62937 whole entry, the tested form may be a part): as the sequence (P62937 whole entry) above
Chain of KRAS G13D binding to BRAF RBD (P01116 other isoform, or with tags, fused parts or gaps G13D): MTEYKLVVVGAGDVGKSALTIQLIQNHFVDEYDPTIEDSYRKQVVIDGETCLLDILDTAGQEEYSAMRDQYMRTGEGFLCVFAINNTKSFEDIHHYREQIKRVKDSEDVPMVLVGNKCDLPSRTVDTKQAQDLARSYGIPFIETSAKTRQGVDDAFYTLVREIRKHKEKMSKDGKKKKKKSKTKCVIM
Chain of KRAS G13D binding to BRAF RBD (P62937 whole entry): as the sequence (P62937 whole entry) above
Chain of NRAS Q61K binding to BRAF RBD (P01111 whole entry Q61K): as the sequence (P01111 whole entry Q61R) above, with R61K counted along it
Chain of NRAS Q61K binding to BRAF RBD (P62937 whole entry): as the sequence (P62937 whole entry) above
Chain of NRAS G12C binding to BRAF RBD (P01111 whole entry G12C): as the sequence (P01111 whole entry Q61R) above, with G12C, R61Q counted along it
Chain of NRAS G12C binding to BRAF RBD (P62937 whole entry): as the sequence (P62937 whole entry) above
Chain of K-Ras G12C(GMP-PNP) binding to BRAF RBD (P01116 other isoform, or with tags, fused parts or gaps G12C): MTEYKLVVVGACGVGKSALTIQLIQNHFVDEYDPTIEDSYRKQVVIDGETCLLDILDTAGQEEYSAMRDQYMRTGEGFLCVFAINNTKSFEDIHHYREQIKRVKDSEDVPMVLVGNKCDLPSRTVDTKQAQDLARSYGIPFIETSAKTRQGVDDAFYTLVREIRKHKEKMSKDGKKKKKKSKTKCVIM
Chain of K-Ras G12C(GMP-PNP) binding to BRAF RBD (P62937 whole entry): as the sequence (P62937 whole entry) above
Chain of NRAS WT binding to BRAF RBD (P01111 whole entry): as the sequence (P01111 whole entry Q61R) above, with R61Q counted along it
Chain of NRAS WT binding to BRAF RBD (P62937 whole entry): as the sequence (P62937 whole entry) above

| SMILES | EC50 [1] [µM] | IC50 (NCI-H358 (K-Ras G12C)) [µM] | IC50 [2] [µM] | IC50 [3] [µM] | IC50 [4] [µM] | IC50 [5] [µM] | IC50 [6] [µM] | IC50 [7] [µM] | IC50 [8] [µM] |
| --- | --- | --- | --- | --- | --- | --- | --- | --- | --- |
| C=CC(=O)N1CC[C@H](C(=O)N(C)[C@H](C(=O)N[C@H]2Cc3cccc(c3)-c3ccc4c(c3)c(c(-c3cccnc3[C@H](C)OC)n4CC)CC(C)(C)COC(=O)[C@@H]3CCCN(N3)C2=O)[C@H](C)C(F)(F)F)C1 (atropisomer, axis not shown) [Compound A641] | < 5 | 0.01 to 0.1 | 0.1 to 1 | 1 to 10 | 1 to 10 | 0.1 to 1 | 1 to 10 | 1 to 10 | 1 to 10 |
| CCn1c(-c2cccnc2[C@H](C)OC)c2c3cc(ccc31)-c1cnc(o1)C[C@H](NC(=O)[C@@H](COC1CN(C(=O)C#CC(C)(C)N(C)C)C1)C(C)C)C(=O)N1CCC[C@H](N1)C(=O)OCCC2 (atropisomer, axis not shown) [Compound A649] | < 5 | 0.01 to 0.1 | 0.01 to 0.1 | > 10 | > 10 | 0.01 to 0.1 | > 10 | > 10 | > 10 |
| CC[C@H](COC1CN(C(=O)C#CC(C)(C)N(C)C)C1)C(=O)N[C@H]1Cc2nc(cs2)-c2ccc3c(c2)c(c(-c2cccnc2[C@H](C)OC)n3CC)CC(C)(C)COC(=O)[C@@H]2CCCN(N2)C1=O (atropisomer, axis not shown) [Compound A660] | < 5 | < 0.01 | < 0.01 | 1 to 10 | 0.1 to 1 | < 0.01 | 1 to 10 | 0.1 to 1 | 0.1 to 1 |
| CC[C@@H](COC1CN(C(=O)C#CC(C)(C)N(C)C)C1)C(=O)N[C@H]1Cc2nc(cs2)-c2ccc3c(c2)c(c(-c2cccnc2[C@H](C)OC)n3CC)CC(C)(C)COC(=O)[C@@H]2CCCN(N2)C1=O (atropisomer, axis not shown) [Compound A705] | < 5 | < 0.01 | < 0.01 | > 10 | 1 to 10 | < 0.01 | > 10 | 1 to 10 | 1 to 10 |
| CCn1c(-c2cccnc2[C@H](C)OC)c2c3cc(ccc31)-c1cccc(c1)C[C@H](NC(=O)[C@H](C(C)C)N1CC[C@@]3(CCN(C(=O)C#CC(C)(C)N4CCC4)C3)C1=O)C(=O)N1CCC[C@H](N1)C(=O)OCC(C)(C)C2 (atropisomer, axis not shown) [Compound A733] | < 5 | < 0.01 | 0.01 to 0.1 | > 10 | 1 to 10 | 0.01 to 0.1 | > 10 | > 10 | > 10 |
| CCn1c(-c2cncnc2)c2c3cc(ccc31)-c1csc(n1)C[C@H](NC(=O)[C@H](C(C)C)N(C)C(=O)[C@H]1CCN(S(=O)(=O)CC)C1)C(=O)N1CCC[C@H](N1)C(=O)OCC(C)(C)C2 [Compound A170] | – | 0.1 to 1 | 1 to 10 | > 10 | > 10 | 1 to 10 | > 10 | > 10 | > 10 |
| C=C(C)C(=O)N1CC(N(C)C(=O)N(C)[C@H](C(=O)N[C@H]2Cc3nc(cs3)-c3ccc4c(c3)c(c(-c3cccnc3[C@H](C)OC)n4CC)CC(C)(C)COC(=O)[C@@H]3CCCN(N3)C2=O)C(C)C)C1 [Compound A359] | – | – | – | – | 1 to 10 | – | 1 to 10 | 1 to 10 | 1 to 10 |
| CCn1c(-c2cccnc2[C@H](C)OC)c2c3cc(ccc31)-c1csc(n1)C[C@H](NC(=O)C1(COC3CN(C(=O)C#CC(C)(C)N4CCC4)C3)CC1)C(=O)N1CCC[C@H](N1)C(=O)OCC(C)(C)C2 [Compound A362] | – | 0.01 to 0.1 | 0.01 to 0.1 | > 10 | 1 to 10 | 0.01 to 0.1 | > 10 | > 10 | 1 to 10 |
| CCn1c(-c2cccnc2[C@H](C)OC)c2c3cc(ccc31)-c1cccc(c1)C[C@H](NC(=O)[C@H](C(C)C)N1CC[C@]3(CCN(C(=O)C#CC(C)(C)N4CCC4)C3)C1=O)C(=O)N1CCC[C@H](N1)C(=O)OCC(C)(C)C2 [Compound A365] | – | < 0.01 | < 0.01 | 1 to 10 | 0.1 to 1 | < 0.01 | 1 to 10 | 1 to 10 | 1 to 10 |
| C=CC(=O)N1CC[C@H](C(=O)N(C)[C@H](C(=O)N[C@H]2CC3CN(CCO3)c3ccc4c(c3)c(c(-c3cccnc3[C@H](C)OC)n4CC)CC(C)(C)COC(=O)[C@@H]3CCCN(N3)C2=O)C(C)C)C1 [Compound A378] | < 5 | 0.1 to 1 | – | > 10 | > 10 | 0.1 to 1 | > 10 | > 10 | 1 to 10 |
| C=CC(=O)N1CC[C@H](C(=O)C2CC[C@H](C)[C@H]2C(=O)N[C@H]2Cc3cccc(c3)-c3ccc4c(c3)c(c(-c3cccnc3[C@H](C)OC)n4CC)CC(C)(C)COC(=O)[C@@H]3CCCN(N3)C2=O)C1 (stereo partly drawn) [Compound A494] | < 5 | – | – | > 10 | 0.1 to 1 | 0.1 to 1 | 1 to 10 | 1 to 10 | 1 to 10 |
| C=CC(=O)N(C)CCN1CCN(C(=O)N(C)[C@H](C(=O)N[C@H]2C[n+]3cccc(c3)-c3ccc4c(c3)c(c(-c3cccnc3[C@H](C)OC)n4CC)CC(C)(C)COC(=O)[C@@H]3CCCN(N3)C2=O)C(C)C)CC1 [Compound A539] | – | 0.1 to 1 | 0.1 to 1 | 1 to 10 | 0.1 to 1 | 0.1 to 1 | 0.1 to 1 | 0.1 to 1 | 0.1 to 1 |
| C=CC(=O)N1CC[C@]2(C1)OCN([C@H](C(=O)N[C@H]1Cc3cc(cc(C(F)(F)F)c3)-c3ccc4c(c3)c(c(-c3cccnc3[C@H](C)OC)n4CC)CC(C)(C)COC(=O)[C@@H]3CCCN(N3)C1=O)C(C)C)C2=O [Compound A557] | < 5 | 0.1 to 1 | 0.1 to 1 | 1 to 10 | 0.01 to 0.1 | 0.1 to 1 | 1 to 10 | 1 to 10 | 0.1 to 1 |
| C=CC(=O)N(C)CCN1CCN(C(=O)N(C)[C@H](C(=O)N[C@H]2CN3CCC=C(C3)c3ccc4c(c3)c(c(-c3cccnc3[C@H](C)OC)n4CC)CC(C)(C)COC(=O)[C@@H]3CCCN(N3)C2=O)C(C)C)C[C@@H]1C [Compound A570] | < 5 | 0.1 to 1 | 0.1 to 1 | 1 to 10 | 0.1 to 1 | 0.1 to 1 | 0.1 to 1 | 0.1 to 1 | 0.1 to 1 |
